Patent publication US20250215039A1, “NUCLEOSIDES FOR TREATING CANCER” (PRIMEFOUR THERAPEUTICS, INC., priority 2022, published 2025)
Read-outs that look alike come from different tables or passages of the source.

Test system: cancer cell lines
Assay: Cancer cell proliferation activity (CellTiterGlo, 72 h)
Type: cell-based
Conditions: for IC50: 72 h, read-out: IC50
Summary of the method: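 Readout is CellTiterGlo luminescence after 72 h compound exposure (0.1% DMSO final), started one day post-seeding, at 37 °C.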

With `Nc1ccn([C@@H]2O[C@H](CO)[C@@H](O)C2(F)F)c(=O)n1` [gemcitabine, reference compound] as the molecule, how does the IC50 (5637 cell line (bladder)) read?
The IC50 was 1.6 nM.

What about the IC50 (CLS439 cell line (bladder)) of the same molecule?
The IC50 was 3.5 nM.

And the IC50 (HS729 cell line (muscle))?
The IC50 was 3.6 nM.

And the IC50 (HSS78T cell line)?
The IC50 was 3.8 nM.

What about the IC50 (JAR cell line (placenta)) of the same molecule?
The IC50 was 2 nM.

What about the IC50 (SKMELS cell line) of the same molecule?
Its IC50 is 3.2 nM.

And the IC50 (Homo sapiens, 22Rv1, 72 h, 22RV1 cell line (prostate))?
The IC50 was 13 nM.

And the IC50 (Homo sapiens, 786-0, 72 h, 786O cell line (kidney))?
Its IC50 is 4.1 nM.

And the IC50 (Homo sapiens, A204, 72 h, A204 cell line (muscle))?
The IC50 was 0.9 nM.

What about the IC50 (Homo sapiens, A549, 72 h, A549 cell line) of the same molecule?
The IC50 was 3.1 nM.

What about the IC50 (Homo sapiens, A673, 72 h, A673 cell line (bone)) of the same molecule?
The IC50 was 3.5 nM.

And the IC50 (Homo sapiens, A2780, 72 h, A2780 cell line (ovary))?
The IC50 was 2.4 nM.

And the IC50 (Homo sapiens, A-375, 72 h, A375 cell line (skin))?
The IC50 was 2.3 nM.

What about the IC50 (Homo sapiens, A-431, 72 h, A431 cell line (skin)) of the same molecule?
The IC50 was 2.3 nM.

What about the IC50 (Homo sapiens, ACHN, ACHN cell line (kidney)) of the same molecule?
The IC50 was 1.5 nM.

And the IC50 (Homo sapiens, ASPC1, 72 h, ASPC1 cell line (pancreas))?
Its IC50 is 5.2 nM.

What about the IC50 (Homo sapiens, BT-20, 72 h, BT20 cell line (breast)) of the same molecule?
Its IC50 is 7 nM.

And the IC50 (Homo sapiens, BXPC-3, 72 h, BXPC3 cell line (pancreas))?
Its IC50 is 2.4 nM.

What about the IC50 (Homo sapiens, C-33-A, C33A cell line (cervical)) of the same molecule?
Its IC50 is 4.4 nM.

What about the IC50 (Homo sapiens, CAKI-1, 72 h, CAKI1 cell line (kidney)) of the same molecule?
Its IC50 is 2.7 nM.

What about the IC50 (Homo sapiens, COLO 205, 72 h, COLO205 cell line (colon)) of the same molecule?
Its IC50 is 20.2 nM.

And the IC50 (Homo sapiens, COLO-678, 72 h, COLO678 cell line (colon))?
The IC50 was 5.3 nM.

What about the IC50 (Homo sapiens, Ca-Ski, CASKI cell line (cervical)) of the same molecule?
The IC50 was 5.9 nM.

And the IC50 (Homo sapiens, Caco-2, 72 h, CACO2 cell line (colon))?
The IC50 was 7 nM.

What about the IC50 (Homo sapiens, Calu-6, 72 h, CALU6 cell line (lung)) of the same molecule?
The IC50 was 6.1 nM.

And the IC50 (Homo sapiens, DLD-1, 72 h, DLD1 cell line (colon))?
Its IC50 is 5.3 nM.

What about the IC50 (Homo sapiens, DU-145, 72 h, DU145 cell line (prostate)) of the same molecule?
The IC50 was 2.1 nM.

And the IC50 (Homo sapiens, EFO-21, 72 h, EFO21 cell line (ovary))?
The IC50 was 1.9 nM.

What about the IC50 (Homo sapiens, EJ-28, 72 h, EJ28 cell line (bladder)) of the same molecule?
Its IC50 is 2.1 nM.

And the IC50 (Homo sapiens, Granta-519, 72 h, GRANTA-519 cell line (hematological))?
Its IC50 is 0.5 nM.

What about the IC50 (Homo sapiens, HCT-15, 72 h, HCT15 cell line (colon)) of the same molecule?
Its IC50 is 4.7 nM.

And the IC50 (Homo sapiens, HCT-116, 72 h, HCT116 cell line (colon))?
The IC50 was 2 nM.

What about the IC50 (Homo sapiens, HEK293, 72 h, HEK293 cell line (kidney)) of the same molecule?
The IC50 was 20.9 nM.

And the IC50 (Homo sapiens, HL-60, 72 h, HL-60 cell line (hematological))?
The IC50 was 2.2 nM.

What about the IC50 (Homo sapiens, HT-29, 72 h, HT29 cell line (colon)) of the same molecule?
Its IC50 is 3.5 nM.

What about the IC50 (Homo sapiens, HT-1080, 72 h, HT1080 cell line (connective tissue)) of the same molecule?
The IC50 was 1.7 nM.

And the IC50 (Homo sapiens, HeLa, HELA cell line (cervical))?
The IC50 was 6 nM.

And the IC50 (Homo sapiens, HepG2, 72 h, HEPG2 cell line (liver))?
Its IC50 is 2 nM.

And the IC50 (Homo sapiens, IGROV-1, 72 h, IGROV1 cell line (ovary))?
The IC50 was 4.8 nM.

And the IC50 (Homo sapiens, IMR-90, 72 h, IMR.90 cell line)?
The IC50 was 2.6 nM.

And the IC50 (Homo sapiens, J82, 72 h, J82 cell line (bladder))?
Its IC50 is 5.1 nM.

And the IC50 (Homo sapiens, JEG-3, 72 h, JEG3 cell line (placenta))?
Its IC50 is 5.3 nM.

And the IC50 (Homo sapiens, JIMT-1, 72 h, JIMT1 cell line (breast))?
The IC50 was 0.9 nM.

And the IC50 (Homo sapiens, K562, 72 h, K-562 cell line (hematological))?
The IC50 was 14.2 nM.

And the IC50 (Homo sapiens, Kasumi 1, 72 h, KASUMI-1 cell line (hematological))?
The IC50 was 3.5 nM.

And the IC50 (Homo sapiens, L-363, 72 h, L-363 cell line (hematological))?
The IC50 was 3.4 nM.

And the IC50 (Homo sapiens, LoVo, LOVO cell line (colon))?
Its IC50 is 2.3 nM.

And the IC50 (Homo sapiens, MCF7, 72 h, MCF7 cell line (breast))?
The IC50 was 4.1 nM.

And the IC50 (Homo sapiens, MDA-MB-231, 72 h, MDAMB231 cell line (breast))?
Its IC50 is 0.9 nM.

What about the IC50 (Homo sapiens, MDA-MB-435, 72 h, MDAMB435 cell line (skin)) of the same molecule?
The IC50 was 2.8 nM.

What about the IC50 (Homo sapiens, MDA-MB-436, 72 h, MDAMB436 cell line (breast)) of the same molecule?
Its IC50 is 1.8 nM.

What about the IC50 (Homo sapiens, MDA-MB-468, 72 h, MDAMB468 cell line (breast)) of the same molecule?
Its IC50 is 1.9 nM.

And the IC50 (Homo sapiens, MG-63, 72 h, MG63 cell line (bone))?
The IC50 was 4.8 nM.

What about the IC50 (Homo sapiens, MHH-ES-1, 72 h, MHHES1 cell line (bone)) of the same molecule?
Its IC50 is 2 nM.

And the IC50 (Homo sapiens, MIA PaCa-2, 72 h, MIAPACA2 cell line (pancreas))?
Its IC50 is 6.8 nM.

And the IC50 (Homo sapiens, MINO, MINO cell line (hematological))?
Its IC50 is 0.3 nM.

What about the IC50 (Homo sapiens, MV4-11, 72 h, MV4-11 cell line (hematological)) of the same molecule?
The IC50 was 1.1 nM.

What about the IC50 (Homo sapiens, NCI-H23, 72 h, NCI-H23 cell line (lung)) of the same molecule?
Its IC50 is 1.1 nM.

And the IC50 (Homo sapiens, NCI-H82, 72 h, NCIH82 cell line (lung))?
The IC50 was 7.6 nM.

What about the IC50 (Homo sapiens, NCI-H292, 72 h, NCIH292 cell line (lung)) of the same molecule?
Its IC50 is 4.4 nM.

What about the IC50 (Homo sapiens, NCI-H460, 72 h, NCIH460 cell line (lung)) of the same molecule?
Its IC50 is 5 nM.

What about the IC50 (Homo sapiens, OVCAR-3, 72 h, OVCAR3 cell line (ovary)) of the same molecule?
The IC50 was 3.1 nM.

What about the IC50 (Homo sapiens, OVCAR-4, 72 h, OVCAR4 cell line (ovary)) of the same molecule?
The IC50 was 4.9 nM.

And the IC50 (Homo sapiens, PANC-1, 72 h, PANC1 cell line (pancreas))?
Its IC50 is 9.7 nM.

And the IC50 (Homo sapiens, PC-3, 72 h, PC3 cell line (prostate))?
The IC50 was 2.6 nM.

What about the IC50 (Homo sapiens, PLC-PRF-5, 72 h, PLCPRF5 cell line (liver)) of the same molecule?
Its IC50 is 9.2 nM.

What about the IC50 (Homo sapiens, Panc1005, 72 h, PANC1005 cell line (pancreas)) of the same molecule?
Its IC50 is 7.9 nM.

What about the IC50 (Homo sapiens, RD, RD cell line (muscle)) of the same molecule?
Its IC50 is 2.3 nM.

What about the IC50 (Homo sapiens, Ramos, RAMOS cell line (hematological)) of the same molecule?
The IC50 was 0.6 nM.

And the IC50 (Homo sapiens, SAOS-2, 72 h, SAOS2 cell line (bone))?
The IC50 was 0.5 nM.

What about the IC50 (Homo sapiens, SF-268, 72 h, SF268 cell line (brain)) of the same molecule?
The IC50 was 4.1 nM.

And the IC50 (Homo sapiens, SF-295, 72 h, SF295 cell line (brain))?
The IC50 was 3.3 nM.

And the IC50 (Homo sapiens, SK-BR-3, 72 h, SKBR3 cell line (breast))?
Its IC50 is 0.6 nM.

And the IC50 (Homo sapiens, SK-HEP1, 72 h, SKHEP1 cell line (liver))?
Its IC50 is 4.7 nM.

And the IC50 (Homo sapiens, SK-LMS-1, 72 h, SKLMS1 cell line (uterus))?
Its IC50 is 4.1 nM.

What about the IC50 (Homo sapiens, SK-MEL-28, 72 h, SKMEL28 cell line (skin)) of the same molecule?
Its IC50 is 4.3 nM.

And the IC50 (Homo sapiens, SK-N-AS, SKNAS cell line (brain))?
The IC50 was 3.6 nM.

What about the IC50 (Homo sapiens, SK-N-SH, SKNSH cell line (brain)) of the same molecule?
The IC50 was 3.3 nM.

And the IC50 (Homo sapiens, SK-OV-3, 72 h, SKOV3 cell line (ovary))?
The IC50 was 23.7 nM.

And the IC50 (Homo sapiens, SNB-75, 72 h, SNB75 cell line (brain))?
The IC50 was 5.3 nM.

And the IC50 (Homo sapiens, SU-DHL10, 72 h, SU-DHL-10 cell line (hematological))?
Its IC50 is 4.1 nM.

What about the IC50 (Homo sapiens, SU-DHL-6, 72 h, SU-DHL-6 cell line (hematological)) of the same molecule?
Its IC50 is 6.8 nM.

And the IC50 (Homo sapiens, SW-620, 72 h, SW620 cell line (colon))?
Its IC50 is 3 nM.

What about the IC50 (Homo sapiens, T-24, 72 h, T24 cell line (bladder)) of the same molecule?
Its IC50 is 1.4 nM.

What about the IC50 (Homo sapiens, TE-671, 72 h, TE671 cell line (muscle)) of the same molecule?
Its IC50 is 8.3 nM.

What about the IC50 (Homo sapiens, THP-1, 72 h, THP-1 cell line (hematological)) of the same molecule?
The IC50 was 1.1 nM.

What about the IC50 (Homo sapiens, U2OS, U2OS cell line (bone)) of the same molecule?
Its IC50 is 5.7 nM.

And the IC50 (Homo sapiens, U-87 MG, U87MG cell line (brain))?
The IC50 was 1.5 nM.

What about the IC50 (Homo sapiens, UMUC3, 72 h, UMUC3 cell line (bladder)) of the same molecule?
Its IC50 is 4.3 nM.

And the IC50 (Homo sapiens, UO-31, 72 h, UO31 cell line (kidney))?
The IC50 was 3.7 nM.

What about the IC50 (Homo sapiens, WSU-NHL, WSU-NHL cell line (hematological)) of the same molecule?
The IC50 was 4.5 nM.

And the IC50 (MT-3, 72 h, MT3 cell line (breast))?
The IC50 was 0.9 nM.

And the IC50 (NCI-H358M, NCIH358M cell line (lung))?
Its IC50 is 3.5 nM.

And the IC50 (PBMC, PBMC (hematological))?
Its IC50 is 12300 nM.

What about the IC50 (RD-ES, RDES cell line (bone)) of the same molecule?
Its IC50 is 3.7 nM.

What about the “cytotoxicity against a panel of cell lines (waterfall plot)” value (panel of cancer and non-cancer cell lines, figure legends FIG. 1-3) of the same molecule?
The value was “indiscriminately cytotoxic”.
